Data published in US4766046A, “Stabilized liposome/amphotericin composition and method” (priority 1985, dated 1988).
Entries after “also recorded” stand apart in the source; their conditions may differ. Values belong to the molecule of their own block, whether it stands above or below them.

Tests used:
[1] = cited from earlier work
[2] = Experimental: The MLVs which formed were diluted, concentrated by ultrafiltration, and extruded successively through 0.4 and 0.2 micron polycarbonate membranes, as in Example II.
Liposomes were prepared from mixture #1 lipids and 3.5 mole percent AMB, with hydration in either PBS, or in a Tris--HCl buffer containing 5% w/v of one of the following sugars: glucose, mannitol, trehalose, sucrose, lactose, or maltodextrin. The MLVs formed on hydration with the selected aqueous medium were extruded successively through 0.4 and 0.2 micron polycarbonate membranes, diluted with the selected medium, and concentrated to the original volume, according to Example I. The liposome suspensions were frozen against a dry ice/isopropanol mixture and lyophilized at a pressure of about 15 mTorr. The lyophilized material was stored under nitrogen at refrigerator temperature until used, typically at least about 12 hours.
Following storage, each of the lyophilized liposome preparations was resuspended to its prelyophilization volume by addition of distilled water. The samples were agitated briefly to facilitate resuspension, and resuspended samples were examined for liposome size distribution, as above.

fungal infections = conditions: cited from earlier work
[3] = free form; cited from earlier work

Compound: CC(C)[C@@H](C)/C=C/[C@@H](C)[C@H]1CC[C@H]2C3=CC=C4C[C@@H](O)CC[C@]4(C)[C@H]3CC[C@]12C [Ergosterol]
protective effect in liposomes ([1]; compared with cholesterol (reference 12)): greater protective effect than cholesterol in liposomes

size stabilization on dehydration and rehydration [2]: good size stabilization
Compound: O=C[C@H](O)[C@@H](O)[C@H](O)[C@H](O)CO [glucose]

size stabilization on dehydration and rehydration [2]: good size stabilization
Compound: OC[C@H]1O[C@@](CO)(O[C@H]2O[C@H](CO)[C@@H](O)[C@H](O)[C@H]2O)[C@@H](O)[C@@H]1O [sucrose]

Compound: C[C@@H]1[C@H](O)[C@@H](C)/C=C/C=C/C=C/C=C/C=C/C=C/C=C/[C@H](O[C@@H]2O[C@H](C)[C@@H](O)[C@H](N)[C@@H]2O)C[C@@H]2O[C@](O)(C[C@@H](O)C[C@@H](O)[C@H](O)CC[C@@H](O)C[C@@H](O)CC(=O)O[C@H]1C)C[C@H](O)[C@H]2C(=O)O [AMB, Amphotericin B]
antifungal activity, in words (fungal infections): effective antifungal agent
side effects of free AMB [3]: side effects resulting from red blood cell disruption are observed initially, followed by more serious cardiotoxicity effects; also recorded: Renal toxicity
LD50 ([1]; earlier studies (references 2-12)): 2 to 3 mg/kg
